According to patent publication US11672265B2, “Egg replacement containing euglena-derived components” (NOBLEGEN, INC., priority 2019, dated 2023):
Where two headings read alike, the source gives them in different places.

Columns and labels:
[1] = system: microbial growth in non-heat treated biomass; assay type: cell-based, yeast, mold, bacteria; conditions: refrigerator (4° C.) 5 days, CP 1000 ppm, SB + PS 1000 ppm each, BV 0.25% (w/w)
Protocol: A biomass stored in the refrigerator at harvested pH (pH 2.75) for 2 days after harvest was chosen for microbial analysis. Four different pH conditions were used for non-heat treated biomass storage, pH 3, 4.5, 5 and 7. Three different antimicrobials (see Table 19 for the names and usage levels) were added to biomass at each pH selected. Control without any antimicrobial agents were also stored at different selected pHs. All the biomass samples were stored in a 4° C. refrigerator for 5 days and a TSA plate assay was done to see the presence of any microbes at the 5 day mark.
Samples without any microbial growth were considered for further storage study. After 16 days of storage, a TSA plating was done on all the heat treated biomass and non-heated biomass with SB+PS at pH 3, 4.5 and 5.

[2] = system: microbes in fresh biomass; assay: Treatment of fresh biomass with nisin, TSA plates; assay type: cell-based, bacteria and yeast
Protocol: Method: Obtained fresh biomass and was washed 1 time with 2.5 times water. The biomass was diluted to 10% (solid content-10.36 w/w %, initial pH was pH 3.35 and the pH was adjusted to 7.2 using 2.5 M NaOH. […] Similarly, about the same amount of biomass without Nisin was also left at both conditions.

| Compound | Microbial growth observed in non-heat treated biomass with antimicrobials ([1]; pH 3) | Microbial growth observed in non-heat treated biomass with antimicrobials ([1]; pH 4.5) | Presence of microbes in biomass treated with nisin ([2]; 70 ppm nisin, biomass pH 7.2, room temperature or 4° C., up to 24 hours) | Prevention of growth of microorganisms in fresh biomass or wet protein concentrate ([2]; 75 ppm of Nisin (conclusion)) |
| --- | --- | --- | --- | --- |
| CCC(=O)[O-].CCC(=O)[O-].[Ca+2] [CP, Calcium propionate] | yeast | yeast | – | – |
| nisin | – | – | Presence of microbes were found at all storage conditions irrespective of the presence of nisin or storage time | will not be able to prevent the growth of microorganisms |
